Measured values taken from ChEMBL document CHEMBL1133958, “Derivatives of (2R,3R,4S)-2-aminomethylpyrrolidine-3,4-diol are selective alpha-mannosidase inhibitors” (Bioorg Med Chem Lett, 2001).
Calls of active or inactive are those of the source. The calls are words filed in the database; no cut-off is given here.

How the values were obtained:
Saccharomyces cerevisiae = test: Percentage inhibition of Alpha-glucosidase from Yeast (maltase) at 1 mM
[1] = target: T1, Beta-galactosidase (Bos taurus) (UniProt Q58D55); test: Percentage inhibition of Beta-galactosidase from Bovine liver at 1 mM concentration
T1 sequence (whole entry): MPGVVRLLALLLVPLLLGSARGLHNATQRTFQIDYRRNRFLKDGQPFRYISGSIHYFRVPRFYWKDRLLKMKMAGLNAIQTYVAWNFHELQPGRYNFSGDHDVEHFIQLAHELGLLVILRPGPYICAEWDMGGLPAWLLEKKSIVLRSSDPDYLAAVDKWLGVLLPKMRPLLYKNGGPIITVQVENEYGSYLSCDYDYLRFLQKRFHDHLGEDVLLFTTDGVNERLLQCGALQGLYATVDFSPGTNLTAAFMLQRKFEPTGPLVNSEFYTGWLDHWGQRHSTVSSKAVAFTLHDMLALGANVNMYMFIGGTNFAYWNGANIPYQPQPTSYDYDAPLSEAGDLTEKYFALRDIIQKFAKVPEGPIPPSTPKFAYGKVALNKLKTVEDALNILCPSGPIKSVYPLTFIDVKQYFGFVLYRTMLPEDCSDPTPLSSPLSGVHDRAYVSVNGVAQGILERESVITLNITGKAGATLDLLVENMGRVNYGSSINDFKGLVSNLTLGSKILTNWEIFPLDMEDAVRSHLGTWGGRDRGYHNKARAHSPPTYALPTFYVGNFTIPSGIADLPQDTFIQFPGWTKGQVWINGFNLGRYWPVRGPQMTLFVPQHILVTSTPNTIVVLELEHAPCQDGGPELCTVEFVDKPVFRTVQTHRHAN

[2] = target: T2, Glucoamylase 1 (Rhizopus oryzae) (UniProt P07683); test: Percentage inhibition of Alpha-glucosidase from Rhizopus mold (amyloglucosidase) at 1 mM concentration; No inhibition; conditions: Rhizopus arrhizus
T2 sequence (whole entry): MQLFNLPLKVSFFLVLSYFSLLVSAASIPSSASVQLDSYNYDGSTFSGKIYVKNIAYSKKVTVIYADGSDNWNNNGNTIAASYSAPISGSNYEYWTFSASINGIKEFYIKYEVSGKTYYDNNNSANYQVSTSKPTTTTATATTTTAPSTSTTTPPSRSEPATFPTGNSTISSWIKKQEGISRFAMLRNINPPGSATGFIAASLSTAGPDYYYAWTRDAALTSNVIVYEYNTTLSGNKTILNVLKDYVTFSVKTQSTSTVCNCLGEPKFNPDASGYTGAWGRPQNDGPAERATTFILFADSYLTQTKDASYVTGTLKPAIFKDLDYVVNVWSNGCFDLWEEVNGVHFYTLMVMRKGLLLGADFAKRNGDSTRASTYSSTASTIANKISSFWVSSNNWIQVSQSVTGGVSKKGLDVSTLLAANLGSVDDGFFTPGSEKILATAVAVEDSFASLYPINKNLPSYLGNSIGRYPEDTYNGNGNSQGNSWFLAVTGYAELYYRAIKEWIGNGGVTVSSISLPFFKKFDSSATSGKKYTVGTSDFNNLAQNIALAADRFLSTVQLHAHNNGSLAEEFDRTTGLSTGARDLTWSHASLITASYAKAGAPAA

[3] = Percentage inhibition of Beta-galactosidase from Jack bean at 1 mM concentration; conditions: Canavalia ensiformis
Beta-glucosidase A = Beta-glucosidase A (Caldicellulosiruptor saccharolyticus, UniProt P10482); test: Inhibitory activity towards Beta-Glucosidase from Caldocellum saccharol
[4] = tested on: Alpha-mannosidase (Prunus dulcis); test: Percentage inhibition of Alpha-mannosidase from Almond at 1 mM

Beta-glucosidase A, sequence (P10482 whole entry): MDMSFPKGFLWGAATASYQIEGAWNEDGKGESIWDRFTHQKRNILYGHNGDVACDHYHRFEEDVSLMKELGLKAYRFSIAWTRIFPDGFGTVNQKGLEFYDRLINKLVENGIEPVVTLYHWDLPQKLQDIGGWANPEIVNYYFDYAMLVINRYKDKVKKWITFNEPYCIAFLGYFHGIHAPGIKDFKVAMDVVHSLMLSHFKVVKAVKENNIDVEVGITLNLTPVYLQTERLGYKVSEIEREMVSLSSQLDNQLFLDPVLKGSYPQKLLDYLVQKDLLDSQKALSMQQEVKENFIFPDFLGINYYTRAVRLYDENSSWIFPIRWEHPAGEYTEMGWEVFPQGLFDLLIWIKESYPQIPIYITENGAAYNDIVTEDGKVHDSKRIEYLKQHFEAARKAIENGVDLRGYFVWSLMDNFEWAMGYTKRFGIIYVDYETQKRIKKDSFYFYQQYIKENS

Structure (SMILES): OC1CNC(CNCC2CCN(Cc3ccccc3)CC2)C1O (stereo unspecified)
- inhibition (Saccharomyces cerevisiae): 55%
- inhibition [1]: 53%
- inhibition [2]: inactive
- inhibition [3]: 26%
- Ki (Beta-glucosidase A): 120 µM
- inhibition [4]: 59%
